Assay results as given in ChEMBL document CHEMBL4837181 (Eur J Med Chem, 2020).
Each block holds one compound with its values, some of them ahead of it.

Legend:
[1] = Half life in male cynomolgus monkey at 75 mg/kg, po measured on day 1; format: ADME, organism-based, Macaca fascicularis; settings: in vivo
[2] = Change in normalised AUC (infinity) in rat at 50 mg/kg, po measured upto 72 hrs by LC-MS/MS analysis; format: ADME, organism-based; settings: in vivo
[3] = Solubility of compound at pH 1; format: physicochemical; settings: buffer
[4] = Half life in female cynomolgus monkey at 75 mg/kg, po measured on day 1; format: ADME, organism-based, Macaca fascicularis; settings: in vivo
[5] = AUC (0 to 24 hrs) in female cynomolgus monkey at 15 mg/kg, iv measured on day 1; format: ADME, organism-based, Macaca fascicularis; design: time < 24 hr, route intravenous, dose 15 mg/kg; settings: in vivo
[6] = Apparent oral clearance in male cynomolgus monkey at 225 mg/kg, po measured on day 1; format: ADME, organism-based, Macaca fascicularis; settings: in vivo
[7] = Change in normalised Cmax in rat at 50 mg/kg, po measured upto 72 hrs by LC-MS/MS analysis; format: ADME, organism-based; settings: in vivo
[8] = Apparent oral clearance in male cynomolgus monkey at 150 mg/kg, po BID measured on day 8; format: ADME, organism-based, Macaca fascicularis; settings: in vivo
[9] = Solubility of compound at pH 7.4; format: physicochemical; settings: buffer
[10] = Cmax in male cynomolgus monkey at 75 mg/kg, po measured on day 1; format: ADME, organism-based, Macaca fascicularis; design: route oral, dose 75 mg/kg; settings: in vivo
[11] = Volume of distribution in female cynomolgus monkey at 15 mg/kg, iv measured on day 1; format: ADME, organism-based, Macaca fascicularis; settings: in vivo
[12] = Half life in male cynomolgus monkey at 225 mg/kg, po measured on day 1; format: ADME, organism-based, Macaca fascicularis; settings: in vivo
[13] = Chemical stability of compound in 0.1 N aqueous HCl buffer assessed as compound remaining at pH 1 at 5 uM measured after 24 hrs by LC-MS/MS analysis; format: physicochemical; settings: pH 1, 24 h
[14] = Drug metabolism in Sprague-Dawley rat hepatocytes assessed as unmetabolized compound at 10 uM incubated for 120 mins by UPLC-QTOF-PDA analysis; format: ADME, cell-based, Hepatocyte; settings: read-out: Drug metabolism
[15] = Drug metabolism in cynomolgus monkey assessed as formation of M9 metabolite at 75 to 375 mg/kg, po BID; format: ADME, organism-based, Macaca fascicularis; settings: in vivo, dose 75-375 mg/kg
[16] = Lipophilicity, logP of the compound; format: physicochemical; settings: octanol/water
[17] = Genotoxicity in rat; format: toxicity
[18] = Protein binding in Beagle dog plasma; format: ADME, cell-free, Canis lupus familiaris; settings: read-out: PPB
[19] = Protein binding in cynomolgus monkey plasma; format: ADME, cell-free, Macaca fascicularis; settings: read-out: PPB
[20] = Drug metabolism in mouse assessed as indoximod formation by measuring indoximod Tmax at 20 to 900 mg/kg; format: ADME, organism-based; settings: in vivo, dose 20-900 mg/kg
[21] = Oral bioavailability in male cynomolgus monkey at 75 mg/kg; format: ADME, organism-based, Macaca fascicularis; settings: in vivo
[22] = Toxicity in rat assessed as abnormal respiratory sounds at 150 to 180 mg/kg, po; format: organism-based; settings: in vivo, dose 150-180 mg/kg
[23] = Solubility of the compound in buffer at pH 1.58 to 6.7; format: physicochemical
[24] = Toxicity in po dosed female rat administered twice a day; format: organism-based; settings: in vivo
[25] = Chemical stability of compound in PBS buffer assessed as compound remaining at pH 7.4 at 5 uM measured after 6 hrs by LC-MS/MS analysis; format: physicochemical; settings: read-out: Stabilty
[26] = Dissociation constant, pKa of the compound; format: physicochemical
[27] = Stability in mouse plasma assessed as parent compound remaining measured after 2 hrs by LC-MS/MS analysis; format: ADME, cell-free; settings: read-out: Stabilty
[28] = Toxicity in monkey assessed as change in cardiovascular parameter; design: species or system Macaca mulatta; settings: rhesus monkey, in vivo
Cytochrome P450 2B6 [29] = biological target: T1, Cytochrome P450 2B6 (Homo sapiens, UniProt P20813); experiment: Inhibition of CYP2B6 in human hepatocytes; format: ADME, cell-based, Hepatocyte
T1 sequence (P20813 whole entry): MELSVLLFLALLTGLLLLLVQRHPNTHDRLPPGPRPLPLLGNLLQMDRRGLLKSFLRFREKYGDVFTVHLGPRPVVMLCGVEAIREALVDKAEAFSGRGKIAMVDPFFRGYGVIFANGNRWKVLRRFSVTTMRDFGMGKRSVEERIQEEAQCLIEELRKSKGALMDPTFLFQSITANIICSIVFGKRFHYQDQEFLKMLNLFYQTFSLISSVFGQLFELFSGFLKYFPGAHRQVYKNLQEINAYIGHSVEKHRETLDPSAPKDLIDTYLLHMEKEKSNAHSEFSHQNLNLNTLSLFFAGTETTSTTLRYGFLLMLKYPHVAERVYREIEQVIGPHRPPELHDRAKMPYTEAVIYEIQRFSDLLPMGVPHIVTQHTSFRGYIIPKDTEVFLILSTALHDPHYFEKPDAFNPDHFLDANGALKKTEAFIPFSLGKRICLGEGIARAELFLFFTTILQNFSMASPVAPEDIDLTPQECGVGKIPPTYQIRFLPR

[30] = Chemical stability of compound in simulated gastric fluid assessed as compound remaining at 5 uM measured after 1.5 hrs by LC-MS/MS analysis; format: ADME, physicochemical; settings: read-out: Stabilty
Cytochrome P450 2C9 = Cytochrome P450 2C9 (Homo sapiens, UniProt P11712); experiment: Inhibition of CYP2C9 in human hepatocytes; format: ADME, cell-based, Hepatocyte
Cytochrome P450 2C9, sequence (P11712 whole entry): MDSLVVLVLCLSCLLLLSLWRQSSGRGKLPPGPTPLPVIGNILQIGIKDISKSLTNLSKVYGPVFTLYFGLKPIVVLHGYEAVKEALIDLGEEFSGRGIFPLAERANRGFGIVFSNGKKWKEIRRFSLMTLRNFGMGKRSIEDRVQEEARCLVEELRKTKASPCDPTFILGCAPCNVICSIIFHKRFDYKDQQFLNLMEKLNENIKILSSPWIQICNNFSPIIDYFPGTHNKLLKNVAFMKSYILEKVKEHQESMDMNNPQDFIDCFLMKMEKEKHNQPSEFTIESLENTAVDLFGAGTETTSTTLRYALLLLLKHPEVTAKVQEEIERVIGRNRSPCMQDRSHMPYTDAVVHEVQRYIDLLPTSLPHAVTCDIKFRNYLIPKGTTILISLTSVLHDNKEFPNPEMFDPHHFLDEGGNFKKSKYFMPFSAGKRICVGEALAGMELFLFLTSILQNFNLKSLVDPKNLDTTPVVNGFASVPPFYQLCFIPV

Cytochrome P450 2B6 [31] = biological target: T1, Cytochrome P450 2B6; experiment: Induction of CYP2B6 in human hepatocytes; format: ADME, cell-based, Hepatocyte
Cytochrome P450 2C8 = biological target: T2, Cytochrome P450 2C8 (Homo sapiens, UniProt P10632); experiment: Inhibition of CYP2C8 in human hepatocytes; format: ADME, cell-based, Hepatocyte
T2 sequence (P10632 whole entry): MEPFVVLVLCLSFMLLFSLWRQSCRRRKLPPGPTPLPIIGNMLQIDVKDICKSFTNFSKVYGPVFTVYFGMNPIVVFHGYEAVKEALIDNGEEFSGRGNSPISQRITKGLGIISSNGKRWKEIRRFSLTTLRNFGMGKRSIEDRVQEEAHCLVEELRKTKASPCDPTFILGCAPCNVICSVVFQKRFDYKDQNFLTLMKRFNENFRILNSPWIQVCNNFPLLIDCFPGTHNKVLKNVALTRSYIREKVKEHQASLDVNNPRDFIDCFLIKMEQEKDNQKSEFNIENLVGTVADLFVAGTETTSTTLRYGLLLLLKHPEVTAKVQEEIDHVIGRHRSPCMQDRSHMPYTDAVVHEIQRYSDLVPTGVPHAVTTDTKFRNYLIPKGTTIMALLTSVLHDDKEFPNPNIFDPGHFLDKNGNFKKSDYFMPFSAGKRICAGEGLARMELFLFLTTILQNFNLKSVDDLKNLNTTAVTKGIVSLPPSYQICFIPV

[32] = Drug metabolism in human hepatocytes assessed as unmetabolized compound at 10 uM incubated for 120 mins by UPLC-QTOF-PDA analysis; format: ADME, cell-based, Hepatocyte; settings: read-out: Drug metabolism
[33] = Oral bioavailability in male cynomolgus monkey at 275 micromol/kg; format: ADME, organism-based, Macaca fascicularis; settings: in vivo, at 275 µmol/kg
[34] = Drug metabolism in cynomolgus monkey assessed as ratio of indoximod to parent compound at 75 to 375 mg/kg, po BID administered […]; format: ADME, organism-based, Macaca fascicularis; settings: in vivo, dose 75-375 mg/kg
[35] = Drug metabolism in cynomolgus monkey assessed as formation of M9 metabolite at 15 mg/kg, iv administered as single dose; format: ADME, organism-based, Macaca fascicularis; settings: in vivo

half-life [1]: 162 min
Activity [2]: 0%
solubility [3]: > 20 mg/mL
half-life [4]: 108 min
AUC(0-t) at 24 h [5]: 70.6 µM·h
CL/F [6]: 22.1 mL/min/kg
Activity [7]: 0%
CL/F [8]: 13.8 mL/min/kg
solubility [9]: < 2000 µg/mL
Cmax [10]: 74.4 µM
Vd [11]: 0.9 L/kg
half-life [12]: 174 min
Structure (SMILES): Cn1cc(C[C@@H](N)C(=O)O)c2ccccc21 [INDOXIMOD]

Structure (SMILES): CCOC(=O)[C@@H](Cc1cn(C)c2ccccc12)NC(=O)[C@@H](N)CC(C)C.Cl
Stabilty [13]: 87%
remaining at 2 h, 10 µM [14]: 0.4%
Drug metabolism [15]: Metabolite_Detected
logP [16]: 2.6
Activity [17]: Non-Toxic
fraction unbound [18]: 0.5
fraction unbound [19]: 0.5
Tmax [20]: 1 h
bioavailability [21]: 61.8%
Activity [22]: Toxic
solubility [23]: 16.3 mg/mL
TD10 [24]: 150 mg/kg
remaining at 6 h, 5 µM [25]: 92%
pKa [26]: 7.76
remaining at 2 h [27]: 0%
Activity [28]: Non-Toxic
IC50 (Cytochrome P450 2B6 [29]): > 50 µM
remaining at 1.5 h, 5 µM [30]: 92%
IC50 (Cytochrome P450 2C9): > 50 µM
Activity (Cytochrome P450 2B6 [31]): Not Active
IC50 (Cytochrome P450 2C8): > 50 µM
remaining at 2 h, 10 µM [32]: 0.9%
F [33]: 10%
Ratio [34]: 690
Drug metabolism [35]: Metabolite_Detected
